Source: patent US20160137639A1, “TRIAZOLE-ISOXAZOLE COMPOUND AND MEDICAL USE THEREOF” (JAPAN TOBACCO INC., priority 2012, published 2016)
Like-named read-outs stand apart in the source and are kept apart here.

Tests used:
mouse RORγ = molecular target: T1, mouse RORγ (Mus musculus, UniProt P51450); assay: Luciferase reporter gene assay of inhibitory effect against RORγ transcriptional activity (GAL4-mRORγ plasmid in CHO cells); format: cell-based
T1 construct: mouse, NM_011281.2 and from Ile251 to Lys516; expressed in transfected cells; host or cells: CHO cells (transient co-transfection with pG5-Luc reporter)
T1 sequence (P51450 251-516): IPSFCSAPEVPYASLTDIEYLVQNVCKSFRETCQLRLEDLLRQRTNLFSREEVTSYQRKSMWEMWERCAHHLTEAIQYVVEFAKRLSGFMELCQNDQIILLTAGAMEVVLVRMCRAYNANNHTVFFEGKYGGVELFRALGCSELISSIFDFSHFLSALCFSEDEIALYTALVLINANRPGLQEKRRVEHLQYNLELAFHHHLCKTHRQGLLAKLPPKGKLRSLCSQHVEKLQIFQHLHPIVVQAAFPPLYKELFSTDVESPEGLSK
Protocol: (§1) In vitro assay of inhibitory effect against RORγ transcriptional activity
(§2) Inhibitory effect of test article on transcriptional activity of RORγ was measured by means of the following luciferase reporter gene assay.
(§3) A cDNA encoding human and mouse RORγ ligand binding domain (LBD) were obtained based on the reported sequences (Genebank accession number and sequence: human, NM_005060.3 and from Ser253 to Lys518; mouse, NM_011281.2 and from Ile251 to Lys516).
(§4) The cDNA of human RORγ or mouse RORγ was inserted into pFA-CMV vector (Strategene), which expresses GAL4-DNA binding domain fusion protein.
(§5) The resulting plasmids are hereinafter referred to as GAL4-hRORγ plasmid and GAL4-mRORγ plasmid, respectively.
(§6) Human or mouse GAL4-RORγ plasmid was transiently co-transfected into Chinese hamster ovary cells (CHO cells) with […] plasmid, a reporter plasmid expressing firefly luciferase depending on GAL4.
(§7) TransIT CHO transfection reagent (Mirus) was used to co-transfect human or mouse GAL4-RORγ plasmid into CHO cells with pG5-Luc plasmid.
(§8) One day before the assay, CHO cells were suspended in HAM F-12 Nutrient medium containing 10 v/v % fetal bovine serum and seeded at 6×10^6 cells per 175 cm^2 cell culture flask.
(§9) Fifty four micro litters of Transit-CHO reagent was added into a 15 ml tube containing 1.16 ml of HAM F-12 Nutrient medium without fetal bovine serum and incubated at room temperature for 10 min.
(§10) The mixture was incubated at room temperature for 10 min.
(§11) Nine micro litters of CHO Mojo Reagent was then added into each tube and mixed gently. The mixture was incubated at room temperature for 10 min.
(§12) The resultant transfection reagent was applied to the cell culture.
(§13) After incubation at 37° C., 5% CO2 for 4 hr, the transfected CHO cells were harvested by a trypsin treatment.
(§14) The collected cells were resuspended in HAM F-12 Nutrient medium supplemented with 10 v/v % fetal bovine serum and plated into a 384-well-white plate at 8,000 cells/50 uL/well.
(§15) The plate was incubated at room temperature for 1 hour and then further incubated at 37° C., 5% CO2 for 3 hours.
(§16) The test articles were dissolved in dimethylsulfoxide (DMSO) to obtain a concentration of 10 mmol/L. The resulting solution was diluted with the medium just before use and added to the cells in the plate to prepare 8 different concentrations of the test article.
(§17) The final concentration of DMSO was 0.1 v/v % After the addition of the test articles, the cells were incubated at 37° C., 5% CO2 for 2 days.
(§18) RORγ transcriptional activity was detected as the intracellular luciferase activity using SteadyLite HTS Reporter Gene Assay System (Perkin Elmer).
(§19) StedyLite Reagent was diluted five-fold into a solution containing 10 mM Tricine, 0.2% w/v BSA, 0.02% v/v Tween-20 to obtain the luciferase substrate solution.
(§20) After the measurement of the cell viability using Resazurin, the culture media in the 384 well-plate were removed. Then the Luc substrate solution was added into each well.
(§21) After the incubation at room temperature for 10 minutes, luminescence of each well was measured by a microplate reader.
(§22) The luciferase activity derived from the luminescence count in the vehicle-control well treated with 0.1% DMSO alone was defined as 100%, and the luciferase activity in the test article was calculated as a percentage (%-of-control) based on the value of the vehicle-control.
(§23) EC50 value of test article was calculated by curve fitting with GraphPad Prism.
(§24) The luminescence counts at the concentration of the test article where the cytotoxicity was observed were excluded from the data analysis.

human RORγ = molecular target: T2, human RORγ (Homo sapiens, UniProt P51449); assay: Luciferase reporter gene assay of inhibitory effect against RORγ transcriptional activity (GAL4-hRORγ plasmid in CHO cells); format: cell-based
T2 construct: human, NM_005060.3 and from Ser253 to Lys518; expressed in transfected cells; host or cells: CHO cells (transient co-transfection with pG5-Luc reporter)
T2 sequence (P51449 253-518): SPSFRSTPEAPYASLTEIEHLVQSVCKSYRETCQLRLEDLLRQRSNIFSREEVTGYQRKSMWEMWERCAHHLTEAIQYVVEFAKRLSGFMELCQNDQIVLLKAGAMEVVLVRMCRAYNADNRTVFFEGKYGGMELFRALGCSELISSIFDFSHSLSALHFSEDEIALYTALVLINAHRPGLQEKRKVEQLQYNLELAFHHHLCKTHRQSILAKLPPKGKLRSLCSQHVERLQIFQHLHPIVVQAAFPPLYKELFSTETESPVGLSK
Protocol: as §1, §2, §3, §4, §5, §6, §7, §8, §9
A total 36 uL plasmid solution containing the GAL4-hRORγ plasmid (400 ng), pG5-Luc plasmid (9000 ng) and pcDNA3 plasmid (8600 ng) were added into the tube and mixed gently.
as §10, §11, §12, §13, §14, §15, §16, §17, §18, §19, §20, §21, §22, §23, §24

Structure (SMILES)	EC50 (mouse RORγ; read-out: LUC EC50 mRORg) [µM]	EC50 (human RORγ; read-out: LUC EC50 hRORg) [µM]	EC50 (mouse RORγ; read-out: LUC EC50 (μM) mRORg) [µM]	EC50 (human RORγ; read-out: LUC EC50 (μM) hRORg) [µM]
Cc1ccc(NC(=O)C[C@H](CCC(=O)O)c2nnn(-c3ccc(CCC4CCCC4)cc3)c2C2CC2)c(Cl)c1 [Example F-701]	< 3	< 3	–	–
CC(=O)N1C[C@H](C(=O)Nc2ccc(C)cc2C)[C@@H](c2nnc(C(O)CCC(C)(C)C)n2C2CC2)C1 (single isomer, unassigned) [Example F-349]	–	–	> 3	> 3
Cc1ccc(NC(=O)CCc2noc(C(F)(F)c3cc(C(C)(C)C)on3)c2C2CC2)c(Cl)c1 [Example F-745]	< 3	< 3	–	–
Cc1c(Cl)cccc1NC(=O)CCc1nnc(CC[C@H]2CC[C@H](C(=O)N(C)C)CC2)n1C1CC1 [Example F-258]	–	–	> 3	> 3
Cc1ccc(NC(=O)[C@H]2CN(C(=O)CCC(=O)O)C[C@@H]2c2noc([C@H]3C[C@@H](CC(C)(C)C)C3)c2C2CC2)c(Cl)c1 [Example F-688, 4-((3R,4R)-3-(2-Chloro-4-methyl-phenylcarbamoyl)-4-{4-cyclopropyl-5-[3-(2,2-dimethyl-propyl)-cyclobutyl]-isoxazol-3-yl}pyrrolidin-1-yl)-4-oxo-butanoic acid]	< 3	< 3	–	–
Cc1ccc(NC(=O)C[C@H](CCO)c2nnc(C3CC4(CCC(F)(F)CC4)C3)n2C2CC2)c(C)c1 [Example F-619]	< 3	< 3	–	–
CC(=O)N1C[C@H](C(=O)Nc2ccc(Cl)cc2C)[C@@H](c2nnc(C3CC4(CCC(F)(F)CC4)C3)n2C2CC2)C1 [Example F-610]	< 3	< 3	–	–
Cc1noc(NC(=O)CCc2nnc(CCC(C)C)n2C2CC2)c1C [Example F-106]	–	–	> 3	> 3
Cc1ccc(NC(=O)C[C@H](CCCO)c2nnn([C@H]3C[C@@H](CC(C)(C)C(C)C)C3)c2C2CC2)c(F)c1 [Example F-709]	< 3	< 3	–	–
CC(=O)N1C[C@@H](C(=O)Nc2ccc(C)cc2C)[C@H](c2nnc(CCCC(C)(C)C)n2CC(F)(F)F)C1 [Example F-393]	–	–	> 3	> 3
COc1cc(C)ccc1CNC(=O)[C@H]1CCCN(C)[C@@H]1c1nnc(CCC2CCCCC2)n1C1CC1 [Example F-267]	–	–	< 3	< 3
COCC(C)(C)C[C@H]1C[C@@H](c2onc([C@@H](CCC(=O)O)CC(=O)Nc3ccc(C)cc3Cl)c2C2CC2)C1 [Example F-725]	< 3	< 3	–	–
CCn1c(CCC(=O)Nc2cc(C)cc(C)c2)nnc1C1Cc2ccccc2C1 [Example F-16]	–	–	< 3	> 3
Cc1c(NC(=O)CCc2nnc(CCC(C)C)n2C2CC2)cccc1C1CC1 [Example F-156]	–	–	< 3	> 3
Cc1ccc(NC(=O)CC(CCCN)c2nnc(CCCC(C)C)n2C2CC2)c(C)c1 (racemic) [Example F-282]	–	–	> 3	> 3
Cc1ccc(NC(=O)C[C@H](CCC(=O)O)c2noc(-c3nnc(CC(C)C)s3)c2C2CC2)c(Cl)c1 [Example E-14]	–	–	< 3	< 3
Cc1ccc(NC(=O)C[C@H](NC(=O)OCc2ccccc2)c2nnc(CCCC(C)(C)C)n2C2CC2)c(C)c1 [Example F-355]	–	–	< 3	< 3
CC(=O)N1C[C@H](C(=O)Nc2ccc(C)cc2C)[C@@H](c2nnc(CCCC(C)(C)C)n2C2CC2)C1 [Example F-338]	–	–	< 3	< 3
